Source: patent US20260226086A1, “COMPOUNDS AND COMPOSITIONS AS STAT3 DEGRADERS AND USES THEREOF” (REGENTS OF THE UNIVERSITY OF MICHIGAN, priority 2023, published 2026)

How the values were obtained:
Assay type in all cases: cell-based
STAT3 = biological target: T1, STAT3 (Homo sapiens, UniProt P40763); assay: HiBiT assay, STAT3 degradation in STAT3-HiBiT KI HeLa cells; conditions: 24 h; for DC50: read-out: STAT3 Degradation (HeLa 24 h HiBit) DC50
T1 construct: This cell line is a clone created by using CRISPR-Cas9 to fuse HiBiT to the 3′ end of STAT3 in HeLa cells; host or cells: STAT3-HiBiT KI HeLa cell line (CRISPR-Cas9 knock-in clone)
In short: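 Luminescence of endogenous HiBiT-tagged STAT3 (C-terminal knock-in, HeLa) was measured with lytic Nano-Glo detection after 24 h exposure to serially diluted compounds at 37 °C. Cells plated at 20000/well; untreated cells served as control, and triplicate means were fit by four-parameter regression to give IC50.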

SU-DHL-1 cells = assay: CellTiter-Glo 2.0 cell viability assay, SU-DHL-1; conditions: Homo sapiens, 96 h, 4 days
In short: (§1)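 IC50 derived by four-parameter nonlinear regression on triplicate luminescence data (CellTiter-Glo 2.0), normalised to untreated controls. Cells plated at 1000/well received serial compound dilutions for 4 days at 37 °C with 5% CO2.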

SUP-M2 cells = assay: CellTiter-Glo 2.0 cell viability assay, SUP-M2; conditions: SUP-M2, 96 h, 4 days
In short: as §1

T1 sequence (P40763 whole entry): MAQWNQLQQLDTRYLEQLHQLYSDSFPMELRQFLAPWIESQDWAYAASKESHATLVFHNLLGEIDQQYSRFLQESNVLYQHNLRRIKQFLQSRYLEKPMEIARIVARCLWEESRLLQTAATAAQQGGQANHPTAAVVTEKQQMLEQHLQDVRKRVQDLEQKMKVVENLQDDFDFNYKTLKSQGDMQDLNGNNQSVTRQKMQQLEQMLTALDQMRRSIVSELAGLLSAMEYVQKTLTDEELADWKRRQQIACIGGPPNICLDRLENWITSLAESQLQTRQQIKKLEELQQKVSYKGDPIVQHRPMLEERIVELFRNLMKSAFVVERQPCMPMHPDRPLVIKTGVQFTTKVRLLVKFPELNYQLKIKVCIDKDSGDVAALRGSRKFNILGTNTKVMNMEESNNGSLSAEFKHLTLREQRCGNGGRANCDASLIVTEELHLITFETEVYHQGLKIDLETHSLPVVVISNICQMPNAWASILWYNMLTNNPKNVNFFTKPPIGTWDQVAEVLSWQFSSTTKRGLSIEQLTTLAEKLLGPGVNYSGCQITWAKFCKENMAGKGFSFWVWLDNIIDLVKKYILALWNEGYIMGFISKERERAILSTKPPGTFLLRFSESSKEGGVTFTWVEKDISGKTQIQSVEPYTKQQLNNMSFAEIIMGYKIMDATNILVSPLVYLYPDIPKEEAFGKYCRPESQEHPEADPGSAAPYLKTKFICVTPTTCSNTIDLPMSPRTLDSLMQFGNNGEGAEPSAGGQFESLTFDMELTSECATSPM

With CCS(=O)(=O)c1ccc(CNC(=O)[C@H](CCC(N)=O)NC(=O)[C@@H]2CC[C@@H]3CCN(C(=O)CCCCc4cn([C@H](C(=O)N5C[C@H](O)C[C@H]5C(=O)N[C@@H](CN5CCOCC5)c5ccc(-c6scnc6C)cc5)C(C)(C)C)nn4)C[C@H](NC(=O)c4cc5cc(C(=O)P(=O)(O)O)ccc5[nH]4)C(=O)N32)cc1 [Compound 16, (2-(((5S,8S,10aR)-8-(((S)-5-amino-1-((4-(ethylsulfonyl)benzyl)amino)-1,5-dioxopentan-2-yl)carbamoyl)-3-(5-(1-((S)-1-((2S,4R)-4-hydroxy-2-(((R)-1-(4-(4-methylthiazol-5-yl)phenyl)-2-morpho-linoethyl)carbamoyl)pyrrolidin-1-yl)-3,3-dimethyl-1-oxobutan-2-yl)-1H-1,2,3-triazol-4-yl)pentanoyl)-6-oxodecahydropyrrolo[1,2-a][1,5]diazocin-5-yl)carbamoyl)-1H-indole-5-carbonyl)phosphonic acid] the Dmax at 1 µM (STAT3) was > 80%, the DC50 (STAT3) was 0.01 to 0.1 µM and the IC50 (SU-DHL-1 cells) was 0.1 to 1 µM. It also gave an IC50 (SUP-M2 cells) of 0.1 to 1 µM.

For Cc1ncsc1-c1ccc([C@H](C)NC(=O)[C@@H]2C[C@@H](O)CN2C(=O)[C@@H](n2cc(CCCCCCCC(=O)N3CC[C@H]4CC[C@@H](C(=O)N[C@@H](CCC(N)=O)C(=O)NC(c5ccccc5)c5ccccc5)N4C(=O)[C@@H](NC(=O)c4cc5cc(C(=O)P(=O)(O)O)ccc5[nH]4)C3)nn2)C(C)(C)C)cc1 [Compound 60, (2-(((5S,8S,10aR)-8-(((S)-5-amino-1-(benzhydrylamino)-1,5-dioxopentan-2-yl)carbamoyl)-3-(8-(1-((S)-1-((2S,4R)-4-hydroxy-2-(((S)-1-(4-(4-methylthiazol-5-yl)phenyl)ethyl)carbamoyl)pyrrolidin-1-yl)-3,3-dimethyl-1-oxobutan-2-yl)-1H-1,2,3-triazol-4-yl)octanoyl)-6-oxodecahydropyrrolo[1,2-a][1,5]diazocin-5-yl)carbamoyl)-1H-indole-5-carbonyl)phosphonic acid], the DC50 (STAT3) was > 1 µM, the IC50 (SU-DHL-1 cells) was > 1 µM and the IC50 (SUP-M2 cells) was > 1 µM.

For Cc1ncsc1-c1ccc([C@H](C)NC(=O)[C@@H]2C[C@@H](O)CN2C(=O)[C@@H](n2cc(CCCCC(=O)N3CC[C@H]4CC[C@@H](C(=O)N[C@@H](CCC(N)=O)COc5cccc(Cl)c5)N4C(=O)[C@@H](NC(=O)c4cc5cc(C(=O)P(=O)(O)O)ccc5[nH]4)C3)nn2)C(C)(C)C)cc1 [Compound 12, (2-(((5S,8S,10aR)-8-(((S)-5-amino-1-(3-chlorophenoxy)-5-oxopentan-2-yl)carbamoyl)-3-(5-(1-((S)-1-((2S,4R)-4-hydroxy-2-(((S)-1-(4-(4-methylthiazol-5-yl)phenyl)ethyl)carbamoyl)pyrrolidin-1-yl)-3,3-dimethyl-1-oxobutan-2-yl)-1H-1,2,3-triazol-4-yl)pentanoyl)-6-oxodecahydropyrrolo[1,2-a][1,5]diazocin-5-yl)carbamoyl)-1H-indole-5-carbonyl)phosphonic acid], the Dmax at 1 µM (STAT3) was > 80%, the DC50 (STAT3) was 0.01 to 0.1 µM and the IC50 (SU-DHL-1 cells) was 0.1 to 1 µM. For the same compound, the IC50 (SUP-M2 cells) was 0.01 to 0.1 µM.

In the case of CC(=O)N1CC[C@H]2CC[C@@H](C(=O)N[C@@H](CCC(N)=O)COc3cccc(CCCc4cn([C@H](C(=O)N5C[C@H](O)C[C@H]5C(=O)N[C@@H](C)c5ccc(-c6scnc6C)cc5)C5CCN(C6CCOCC6)CC5)nn4)c3Cl)N2C(=O)[C@@H](NC(=O)c2cc3cc(C(=O)P(=O)(O)O)ccc3[nH]2)C1 [Compound 25, (2-(((5S,8S,10aR)-3-acetyl-8-(((S)-5-amino-1-(2-chloro-3-(3-(1-((S)-2-((2S,4R)-4-hydroxy-2-(((S)-1-(4-(4-methylthiazol-5-yl)phenyl)ethyl)carbamoyl)pyrrolidin-1-yl)-2-oxo-1-(1-(tetrahydro-2H-pyran-4-yl)piperidin-4-yl)ethyl)-1H-1,2,3-triazol-4-yl)propyl)phenoxy)-5-oxopentan-2-yl)carbamoyl)-6-oxodecahydropyrrolo [1,2-a][1,5]diazocin-5-yl)carbamoyl)-1H-indole-5-carbonyl)phosphonic acid], the Dmax at 1 µM (STAT3) is reported as 60 to 80%, the DC50 (STAT3) is reported as 0.1 to 1 µM and the IC50 (SU-DHL-1 cells) is reported as 0.01 to 0.1 µM. The IC50 (SUP-M2 cells) was 0.01 to 0.1 µM.

CC(=O)N1CC[C@H]2CC[C@@H](C(=O)N[C@@H](CCC(N)=O)COc3cccc(CCCc4cn([C@H](C(=O)N5C[C@H](O)C[C@H]5C(=O)N[C@@H](C)c5ccc(-c6scnc6C)cc5)C5CCOCC5)nn4)c3Cl)N2C(=O)[C@@H](NC(=O)c2cc3cc(C(=O)P(=O)(O)O)ccc3[nH]2)C1 [Compound 23, (2-(((5S,8S,10aR)-3-acetyl-8-(((S)-5-amino-1-(2-chloro-3-(3-(1-((S)-2-((2S,4R)-4-hydroxy-2-(((S)-1-(4-(4-methylthiazol-5-yl)phenyl)ethyl)carbamoyl)pyrrolidin-1-yl)-2-oxo-1-(tetrahydro-2H-pyran-4-yl)ethyl)-1H-1,2,3-triazol-4-yl)propyl)phenoxy)-5-oxopentan-2-yl)carbamoyl)-6-oxodecahydropyrrolo[1,2-a][1,5]diazocin-5-yl)carbamoyl)-1H-indole-5-carbonyl)phosphonic acid] was tested, and the Dmax at 1 µM (STAT3) was > 80%, the DC50 (STAT3) was < 0.01 µM and the IC50 (SU-DHL-1 cells) was < 0.01 µM. For the same compound, the IC50 (SUP-M2 cells) was < 0.01 µM.

With CC(=O)N1CC[C@H]2CC[C@@H](C(=O)N[C@@H](CCC(N)=O)COc3cccc(CCCC(=O)N4CCC([C@@H](C(=O)N5C[C@H](O)C[C@H]5C(=O)N[C@@H](C)c5ccc(-c6scnc6C)cc5)n5cc(C6CC6)nn5)CC4)c3Cl)N2C(=O)[C@@H](NC(=O)c2cc3cc(C(=O)P(=O)(O)O)ccc3[nH]2)C1 [Compound 37, (2-(((5S,8S,10aR)-3-acetyl-8-(((S)-5-amino-1-(2-chloro-3-(4-(4-((S)-1-(4-cyclopropyl-1H-1,2,3-triazol-1-yl)-2-((2S,4R)-4-hydroxy-2-(((S)-1-(4-(4-methylthiazol-5-yl)phenyl)ethyl)carbamoyl)pyrrolidin-1-yl)-2-oxoethyl)piperidin-1-yl)-4-oxobutyl)phenoxy)-5-oxopentan-2-yl)carbamoyl)-6-oxodecahydropyrrolo[1,2-a][1,5]diazocin-5-yl)carbamoyl)-1H-indole-5-carbonyl)phosphonic acid] the Dmax at 1 µM (STAT3) was 60 to 80%, the DC50 (STAT3) was 0.1 to 1 µM and the IC50 (SU-DHL-1 cells) was > 1 µM. It also gave an IC50 (SUP-M2 cells) of 0.01 to 0.1 µM.

In the case of COCCOCCOCCOCCC(=O)N1CC[C@H]2CC[C@@H](C(=O)N[C@@H](CCC(N)=O)COc3cccc(CCCc4cn([C@H](C(=O)N5C[C@H](O)C[C@H]5C(=O)N[C@@H](C)c5ccc(-c6scnc6C)cc5)C(C)(C)C)nn4)c3Cl)N2C(=O)[C@@H](NC(=O)c2cc3cc(C(=O)P(=O)(O)O)ccc3[nH]2)C1 [Compound 30, (2-(((5S,8S,10aR)-8-(((S)-5-amino-1-(2-chloro-3-(3-(1-((S)-1-((2S,4R)-4-hydroxy-2-(((S)-1-(4-(4-methylthiazol-5-yl)phenyl)ethyl)carbamoyl)pyrrolidin-1-yl)-3,3-dimethyl-1-oxobutan-2-yl)-1H-1,2,3-triazol-4-yl)propyl)phenoxy)-5-oxopentan-2-yl)carbamoyl)-6-oxo-3-(2,5,8,11-tetraoxatetradecan-14-oyl)decahydropyrrolo[1,2-a][1,5]diazocin-5-yl)carbamoyl)-1H-indole-5-carbonyl)phosphonic acid], the Dmax at 1 µM (STAT3) is reported as > 80%, the DC50 (STAT3) is reported as < 0.01 µM and the IC50 (SU-DHL-1 cells) is reported as < 0.01 µM. It also gave an IC50 (SUP-M2 cells) of 0.01 to 0.1 µM.

Cc1ncsc1-c1ccc([C@H](C)NC(=O)[C@@H]2C[C@@H](O)CN2C(=O)[C@@H](n2cc(CCCCC(=O)N3CC[C@H]4CC[C@@H](C(=O)N[C@@H](CCC(N)=O)C(=O)NCc5cccc(Cl)c5)N4C(=O)[C@@H](NC(=O)c4cc5cc(C(=O)P(=O)(O)O)ccc5[nH]4)C3)nn2)C(C)(C)C)cc1 [Compound 10, (2-(((5S,8S,10aR)-8-(((S)-5-amino-1-((3-chlorobenzyl)amino)-1,5-dioxopentan-2-yl)carbamoyl)-3-(5-(1-((S)-1-((2S,4R)-4-hydroxy-2-(((S)-1-(4-(4-methylthiazol-5-yl)phenyl)ethyl)carbamoyl)pyrrolidin-1-yl)-3,3-dimethyl-1-oxobutan-2-yl)-1H-1,2,3-triazol-4-yl)pentanoyl)-6-oxodecahydropyrrolo[1,2-a][1,5]diazocin-5-yl)carbamoyl)-1H-indole-5-carbonyl)phosphonic acid] was tested, and the Dmax at 1 µM (STAT3) was > 80%, the DC50 (STAT3) was 0.01 to 0.1 µM and the IC50 (SU-DHL-1 cells) was 0.01 to 0.1 µM. The IC50 (SUP-M2 cells) was 0.01 to 0.1 µM.

CCS(=O)(=O)c1ccc(CNC(=O)[C@H](CCC(N)=O)NC(=O)[C@@H]2CC[C@@H]3CCN(C(=O)CCCCCCc4cn([C@H](C(=O)N5C[C@H](O)C[C@H]5C(=O)N[C@@H](C)c5ccc(-c6scnc6C)cc5)C(C)(C)C)nn4)C[C@H](NC(=O)c4cc5cc(C(=O)P(=O)(O)O)ccc5[nH]4)C(=O)N32)cc1 [Compound 15, (2-(((5S,8S,10aR)-8-(((S)-5-amino-1-((4-(ethylsulfonyl)benzyl)amino)-1,5-dioxopentan-2-yl)carbamoyl)-3-(7-(1-((S)-1-((2S,4R)-4-hydroxy-2-(((S)-1-(4-(4-methylthiazol-5-yl)phenyl)ethyl)carbamoyl)pyrrolidin-1-yl)-3,3-dimethyl-1-oxobutan-2-yl)-1H-1,2,3-triazol-4-yl)heptanoyl)-6-oxodecahydropyrrolo[1,2-a][1,5]diazocin-5-yl)carbamoyl)-1H-indole-5-carbonyl)phosphonic acid] was tested, and the Dmax at 1 µM (STAT3) was > 80%, the DC50 (STAT3) was < 0.01 µM and the IC50 (SU-DHL-1 cells) was 0.01 to 0.1 µM. It also gave an IC50 (SUP-M2 cells) of 0.01 to 0.1 µM.
